Columns and labels:
[1] = test system: MCA-205 sarcoma; test: Avatar mice: FMT from responder (R) / non-responder (NR) NSCLC patients, MCA-205 tumors; type: in vivo, C57BL/6 mice
Procedure: FIG. 5A is a schematic of the experimental design of avatar mice experiments. FMT from feces samples from Non-responders (NR) and responders (R) Non-small cell lung cancer (NSCLC) patients were individually performed after 3 days of ATB in SPF C57BI6 mice. Two weeks later, MCA-205 sarcoma cells were inoculated and daily gavage with water or CC were performed in combination with sequential injections of αPD-1 or IsoPD-1 mAb.
FIG. 11A is a graph showing the effect of castalagin (0.85 mg/kg) in the presence or not of anti-PD-1 on tumor growth kinetics in the in the ATB-avatar model after FMT from 1 NR NSCLC patient with daily gavage with castalagin or water in combination with αPD1 mAb or IsoPD-1. Unpaired t-tests were used. Means ±SEM are represented. *p<0.05. […]
Fecal microbiota transplantation (FM7) experiments. FMT was performed as previously published Routy et al. by thawing fecal material from 5 different Non-Small cell lung cancer (NSCLC) patients amenable to immune checkpoint blockers (ICI after appropriate ethics approval at the Centre de recherche du Centre hospitalier de l'Université de Montréal (CRCHUM) in Montreal. Patient records were retrospectively analyzed to identify their response status. Two weeks after FMT, tumor cells were injected subcutaneously and mice were treated with anti-PD-1 mAb or isotype control +/− CC, castalagin or water as described above.

[2] = test system: gut microbiota; test: 16S rRNA gene sequencing of mouse feces (microbiome profiling); type: in vivo, mice
Procedure: Genomic DNA extraction from mouse feces. Total genomic DNA from fecal pellets was extracted using ZymoBIOMICS DNA Miniprep Kit (Zymo Research Corporation) and immediately stored at -80° C. This protocol involves a bead beating step to ensure full recovery of bacterial DNA. DNA concentration and quality were measured using the Nanodrop ND-1000 (ThermoFisher).
16S rRNA gene sequence processing and analysis mouse feces samples. Isolated DNA was analyzed using 16S ribosomal RNA (rRNA) gene sequence to investigate the microbial composition in fecal samples. The V3—V4 region of the 16S rDNA gene was amplified by PCR using primers Bakt_341F (5′-CCTACGGGNGGCWGCAG-3′, SEQ ID NO:5) and Bakt_805R (5′-[…]-3′, SEQ ID NO:6) adapted to incorporate the transposon-based Illumina Nextera adapters (Illumina) and a sample barcode sequence allowing multiplexed paired-end sequencing. PCR mixtures contained 1× Q5 buffer (NEB), 1× Q5 Enhancer (NEB), 200 μM dNTP (VWR International), 0.2 μM of forward and reverse primer (Integrated DNA Technologies), 1 unit of Q5 (NEB) and 1 μl of template DNA in a 50 μl reaction. The PCR cycling conditions consisted of an initial denaturation of 30 sec at 98° C., followed by a first set of 15 cycles (98° C. for 10 sec, 55° C. for 30 sec and 72° C. for 30 sec), then by a second step of 15 cycles (98° C. for 10 sec, 65° C. for 30 sec and 72° C. for 30 sec) and final elongation of 2 min at 72° C. before cooling to 4° C. indefinitely. PCR products were purified using 35 pl of magnetic beads (AxyPrep Mag PCR Clean up kit; Axygen Biosciences) per 50 μl PCR reaction. Amplifications were controlled on a Bioanalyzer 2100 using DNA 7500 chips (Agilent Technologies). Samples were pooled at an equimolar ratio; the pool was repurified as described before and checked for quality on a Bioanalyzer 2100 using a DNA high sensitivity chip. The pool was quantified using picogreen (Life Technologies) and loaded on a MiSeq system (Illumina). High-throughput sequencing was performed at the IBIS (Institut de Biologie Integrative et des Systèmes—Université Laval).
Gene sequence processing and analysis was performed using R v4.0.0. DADA2R package v1.16.0 (Callahan et al., Nat Methods. 2016 July; 13(7):581-3) was used to generate exact amplicon sequence variants (ASV) of each sample from raw amplicon sequences. Sequences were corrected for Illumina amplicon sequence errors, de-replicated, chimera removed, and merged of paired-end reads with 260-bases for forward reads and 190-bases for reverse reads. The taxonomy assignment was performed against the SILVA reference database v138 (Quast et al., Nucleic Acids Res. 2013 January; 41(Database issue):D590-6). Archea and Eukaryota residual sequences were removed. Downstream analyses were performed at the genus-level through phyloseq R package v1.32.0 (McMurdie et al., PLoS One. 2013 Apr 22;8(4):e61217). The alpha-diversity was estimated with the Shannon diversity index and the Inverse Simpson index. These indexes were compared between groups using Mann-Whitney tests.
Statistical analysis. Statistical analysis was performed using R v4.0.0. The Mann-Whitney U test was used to determine significant differences among the different groups using alpha-diversity which show the diversity in each individual sample measures. DESeq2 (Love et al., Genome Biol. 2014;15(12):550) was used to perform differential abundances analysis at the genus-level. […]

For `O=C1OC[C@H]2OC(=O)c3cc(O)c(O)c(O)c3-c3c(O)c(O)c(O)c4c3C(=O)O[C@H]([C@H]3OC(=O)c5c-4c(O)c(O)c(O)c5[C@@H]3O)[C@@H]2OC(=O)c2cc(O)c(O)c(O)c2-c2c1cc(O)c(O)c2O` [castalagin, Castalagin], the “antitumor activity (tumor growth)” value ([1]; castalagin 0.85 mg/kg + αPD-1, post-FMT from NR NSCLC patients) was “additive effect when combined with αPD-1”, the “antitumor activity (tumor growth)” value ([1]; castalagin 0.85 mg/kg alone, post-FMT from NR NSCLC patients, ATB and GF conditions) was “able to restore antitumor activity” and the “beta-diversity (Bray-Curtis)” value ([2]; MCA-205 model, SPF mice, castalagin or water gavage) was “significant clusters formation observed with beta-diversity”. For the same molecule, the “differential abundance, taxa enriched” value ([2]; MCA-205 model, SPF mice, castalagin/IsoPD-1 vs water/IsoPD-1) was “enrichment of Akkermensia, Ruminococcaceae UBA1819, Ruminococcus, Staphylococcus, Escherichia/shigella, Blautia and Alistipes”, the “alpha-diversity (observed genus)” value ([2]; MCA-205 model, SPF mice, castalagin/isoPD-1, post-castalagin vs baseline) was “increased alpha-diversity” and the “relative abundance, genera increased” value ([2]; NR FMT experiment, castalagin groups relative to water groups) was “increase of the relative abundance after 16s sequencing analysis of Ruminococcus, Alistepes, Christensenellaceae R7 group, Paraprevotella”. The “relative abundance of Lachnoclostridium” value ([2]; NR FMT experiment, castalagin vs water groups) was “no difference of Lachnoclostridium was observed”.

Source: patent publication US20230075822A1, “USE OF CASTALAGIN OR ANALOGS THEREOF FOR ANTI-CANCER EFFICACY AND TO INCREASE THE RESPONSE TO IMMUNE CHECKPOINT INHIBITORS” (THE ROYAL INSTITUTION FOR THE ADVANCEMENT OF …, priority 2020, published 2023)
